Consider 3 compounds from patent US7192906B2, “Substituted pyrazole derivatives, production process thereof, and herbicide compositions containing the derivatives” (SDS Biotech K.K., priority 2001, dated 2007).

Common to all, as to type: in vivo
Series [1] relates to wheat (Triticum aestivum). Nature of the series: Test Example 1 upland field foliage treatment, crop phytotoxicity. The conditions noted are these: Table 4, upland field foliage treatment, index 0-5. An outline of the steps:
(§1)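 Post-emergence foliar spray, 1 kg a.i./ha, wettable powder diluted in water, applied 14 d after sowing in upland soil. Rating 21 d post-application, 0–5 scale: 5 ≥90%, 4 70–<90%, 3 50–<70%, 2 30–<50%, 1 10–<30%, 0 <10% effect or injury.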

Series [2] deals with soybean (Glycine max). The description is as above. Particulars: Table 4, upland field foliage treatment, index 0-5. An outline of the steps: as §1
The subject of series [3] is wheat (Triticum aestivum). The series is described as follows: Test Example 2 upland soil treatment, crop phytotoxicity. The conditions noted are these: Table 5, upland soil treatment, index 0-5. An outline of the steps:
(§2)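 Seeds are sown into upland soil and covered by roughly 1 cm of soil, then the compound, formulated as a wettable powder and diluted with water, is applied uniformly to the soil surface the following day at 1 kg active ingredient per hectare. Herbicidal effect or phytotoxicity is graded 0 to 5 after 21 days.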

For series [4], the system named is soybean (Glycine max). The series is described as above. The conditions noted are these: Table 5, upland soil treatment, index 0-5. An outline of the steps: as §2
Series [5] concerns Digitaria adscendens. Nature of the series: Test Example 1 upland field foliage treatment. The conditions noted are these: Table 4, upland field foliage treatment, index 0-5. In a few lines: as §1
Series [6] relates to Stellaria media. The series is described as follows: Test Example 1 upland field foliage treatment. The conditions noted are these: Table 4, upland field foliage treatment, index 0-5. An outline of the steps:
as §1

Series [7] has as its system Setaria viridis. The series is described as follows: Test Example 1 upland field foliage treatment. The conditions noted are these: Table 4, upland field foliage treatment, index 0-5. In a few lines:
as §1

Series [8] concerns Chenopodium album. Nature of the series: Test Example 1 upland field foliage treatment. Particulars: Table 4, upland field foliage treatment, index 0-5. An outline of the steps: as §1
Series [9] concerns Digitaria adscendens. Nature of the series: Test Example 2 upland soil treatment. The conditions noted are these: Table 5, upland soil treatment, index 0-5. In a few lines:
as §2

Series [10] relates to Stellaria media. Nature of the series: Test Example 2 upland soil treatment. Particulars: Table 5, upland soil treatment, index 0-5. In a few lines: as §2
The test system of series [11] is Setaria viridis. The series is described as follows: Test Example 2 upland soil treatment. The conditions noted are these: Table 5, upland soil treatment, index 0-5. An outline of the steps: as §2
The test system of series [12] is Chenopodium album. The series is described as follows: Test Example 2 upland soil treatment. The conditions noted are these: Table 5, upland soil treatment, index 0-5. An outline of the steps:
as §2

The subject of series [13] is Scirpus juncoides. The series is described as follows: Test Example 3 paddy field treatment. Particulars: paddy field treatment, wettable powder, active ingredient 1 kg per hectare, 21st day after the dropping, index 0-5. An outline of the steps: (§3)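 Scoring used a 0–5 scale of herbicidal effect or phytotoxicity, from <10% to ≥90%, taken 21 days after treatment. Treatment was 1 kg a.i./ha as diluted wettable powder dripped onto 4 cm-deep flooded pots sown with the weeds, 10 days after transplanting two-leaf Koshihikari rice.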

The subject of series [14] is Ammannia multiflora. The series is described as follows: Test Example 3 paddy field treatment. The conditions noted are these: paddy field treatment, wettable powder, active ingredient 1 kg per hectare, 21st day after the dropping, index 0-5. In a few lines: as §3
In series [15] the test system is Echinochloa crusgalli. Nature of the series: Test Example 3 paddy field treatment. The conditions noted are these: paddy field treatment, wettable powder, active ingredient 1 kg per hectare, 21st day after the dropping, index 0-5. In a few lines: as §3
Series [16] deals with Monochoria vaginalis. Nature of the series: Test Example 3 paddy field treatment. The conditions noted are these: paddy field treatment, wettable powder, active ingredient 1 kg per hectare, 21st day after the dropping, index 0-5. An outline of the steps: as §3
Series [17] relates to Rice (Oryza sativa). The series is described as follows: Test Example 3 paddy field treatment, crop phytotoxicity. Particulars: paddy field treatment, transplanted rice Koshihikari, wettable powder, active ingredient 1 kg per hectare, 21st day after the dropping, index 0-5. An outline of the steps:
as §3

Turning to `CON=C(Cn1cc(C)c(-c2ccccc2)n1)C(=O)NCc1ccccc1` [Compound 30], the “Herbicidal activity (phytotoxicity) TA: Wheat (Triticum aestivum)” value (“Herbicidal activity (phytotoxicity) TA” for short) is 0 (herbicidal effect of not less than 0% and less than 10%, or phytotoxicity of 0% or more and less than 10%) in [1]; 0 (herbicidal effect of not less than 0% and less than 10%, or phytotoxicity of 0% or more and less than 10%) in [3]. Besides, the “Herbicidal activity (phytotoxicity) GM: Soybean (Glycine max)” value (“Herbicidal activity (phytotoxicity) GM” for short) in series [2] is 0 (herbicidal effect of not less than 0% and less than 10%, or phytotoxicity of 0% or more and less than 10%); in series [4], 0 (herbicidal effect of not less than 0% and less than 10%, or phytotoxicity of 0% or more and less than 10%). Also, the “Herbicidal activity DA: Digitaria adscendens” value (“Herbicidal activity DA” for short) in series [5] is 4 (herbicidal effect of not less than 70% and less than 90%, or phytotoxicity of 70% or more and less than 90%); in series [9], 3 (herbicidal effect of not less than 50% and less than 70%, or phytotoxicity of 50% or more and less than 70%). Also, the “Herbicidal activity SM: Stellaria media” value in series [6] is 3 (herbicidal effect of not less than 50% and less than 70%, or phytotoxicity of 50% or more and less than 70%); in [10], 3 (herbicidal effect of not less than 50% and less than 70%, or phytotoxicity of 50% or more and less than 70%). The “Herbicidal activity SV: Setaria viridis” value is 3 (herbicidal effect of not less than 50% and less than 70%, or phytotoxicity of 50% or more and less than 70%) in series [7]; 4 (herbicidal effect of not less than 70% and less than 90%, or phytotoxicity of 70% or more and less than 90%) in [11]. The “Herbicidal activity CA: Chenopodium album” value (shortened to “Herbicidal activity CA”) in series [8] was 4 (herbicidal effect of not less than 70% and less than 90%, or phytotoxicity of 70% or more and less than 90%); in series [12], 4 (herbicidal effect of not less than 70% and less than 90%, or phytotoxicity of 70% or more and less than 90%). The “Herbicidal activity SJ” value in series [13] was 4 (herbicidal effect of not less than 70% and less than 90%, or phytotoxicity of 70% or more and less than 90%). The “Herbicidal activity AM” value in [14] is 4 (herbicidal effect of not less than 70% and less than 90%, or phytotoxicity of 70% or more and less than 90%). For the same compound, in [15], the “Herbicidal activity EC” value was 4 (herbicidal effect of not less than 70% and less than 90%, or phytotoxicity of 70% or more and less than 90%). In addition, in [16], the “Herbicidal activity MV” value is 5 (herbicidal effect of not less than 90%, or phytotoxicity of 90% or more). Moreover, in series [17], the “Herbicidal activity OS (phytotoxicity to rice)” value (from here on “Herbicidal activity OS”) was 0 (herbicidal effect of not less than 0% and less than 10%, or phytotoxicity of 0% or more and less than 10%).

With `CON=C(Cn1cc(C)c(-c2ccccc2)n1)C(=O)NCC#N` [Compound 33], the “Herbicidal activity (phytotoxicity) TA” value in series [1] was 0 (herbicidal effect of not less than 0% and less than 10%, or phytotoxicity of 0% or more and less than 10%); in [3], 0 (herbicidal effect of not less than 0% and less than 10%, or phytotoxicity of 0% or more and less than 10%). Moreover, the “Herbicidal activity (phytotoxicity) GM” value is 0 (herbicidal effect of not less than 0% and less than 10%, or phytotoxicity of 0% or more and less than 10%) in series [2]; 0 (herbicidal effect of not less than 0% and less than 10%, or phytotoxicity of 0% or more and less than 10%) in [4]. For the same compound, the “Herbicidal activity DA” value in series [5] is 5 (herbicidal effect of not less than 90%, or phytotoxicity of 90% or more); in series [9], 5 (herbicidal effect of not less than 90%, or phytotoxicity of 90% or more). In addition, the “Herbicidal activity SM: Stellaria media” value in series [6] was 4 (herbicidal effect of not less than 70% and less than 90%, or phytotoxicity of 70% or more and less than 90%); in series [10], 5 (herbicidal effect of not less than 90%, or phytotoxicity of 90% or more). Moreover, the “Herbicidal activity SV: Setaria viridis” value in series [7] was 4 (herbicidal effect of not less than 70% and less than 90%, or phytotoxicity of 70% or more and less than 90%); in series [11], 4 (herbicidal effect of not less than 70% and less than 90%, or phytotoxicity of 70% or more and less than 90%). Further, the “Herbicidal activity CA” value in series [8] was 4 (herbicidal effect of not less than 70% and less than 90%, or phytotoxicity of 70% or more and less than 90%); in series [12] it was 5 (herbicidal effect of not less than 90%, or phytotoxicity of 90% or more). Further, in series [13], the “Herbicidal activity SJ” value was 4 (herbicidal effect of not less than 70% and less than 90%, or phytotoxicity of 70% or more and less than 90%). Besides, the “Herbicidal activity AM” value in [14] is recorded as 5 (herbicidal effect of not less than 90%, or phytotoxicity of 90% or more). Moreover, in [15], the “Herbicidal activity EC” value is reported as 5 (herbicidal effect of not less than 90%, or phytotoxicity of 90% or more). For the same compound, the “Herbicidal activity MV” value in [16] is 5 (herbicidal effect of not less than 90%, or phytotoxicity of 90% or more). In addition, in series [17], the “Herbicidal activity OS” value is 0 (herbicidal effect of not less than 0% and less than 10%, or phytotoxicity of 0% or more and less than 10%).

Consider `CON=C(Cn1cc(C)c(-c2ccccc2)n1)C(=O)NCC(F)(F)F` [Compound 34], for which the “Herbicidal activity (phytotoxicity) TA” value in series [1] is 0 (herbicidal effect of not less than 0% and less than 10%, or phytotoxicity of 0% or more and less than 10%); in [3] it was 0 (herbicidal effect of not less than 0% and less than 10%, or phytotoxicity of 0% or more and less than 10%). Besides, the “Herbicidal activity (phytotoxicity) GM” value was 0 (herbicidal effect of not less than 0% and less than 10%, or phytotoxicity of 0% or more and less than 10%) in series [2]; 0 (herbicidal effect of not less than 0% and less than 10%, or phytotoxicity of 0% or more and less than 10%) in [4]. For the same compound, the “Herbicidal activity DA” value in series [5] is reported as 5 (herbicidal effect of not less than 90%, or phytotoxicity of 90% or more); in series [9] it was 5 (herbicidal effect of not less than 90%, or phytotoxicity of 90% or more). The “Herbicidal activity SM: Stellaria media” value is 4 (herbicidal effect of not less than 70% and less than 90%, or phytotoxicity of 70% or more and less than 90%) in series [6]; 5 (herbicidal effect of not less than 90%, or phytotoxicity of 90% or more) in series [10]. For the same compound, the “Herbicidal activity SV: Setaria viridis” value in series [7] is 4 (herbicidal effect of not less than 70% and less than 90%, or phytotoxicity of 70% or more and less than 90%); in series [11], 4 (herbicidal effect of not less than 70% and less than 90%, or phytotoxicity of 70% or more and less than 90%). Moreover, the “Herbicidal activity CA” value in [8] was 4 (herbicidal effect of not less than 70% and less than 90%, or phytotoxicity of 70% or more and less than 90%); in [12] it was 5 (herbicidal effect of not less than 90%, or phytotoxicity of 90% or more). For the same compound, in series [13], the “Herbicidal activity SJ” value is listed as 5 (herbicidal effect of not less than 90%, or phytotoxicity of 90% or more). Moreover, the “Herbicidal activity AM” value in series [14] is 5 (herbicidal effect of not less than 90%, or phytotoxicity of 90% or more). Moreover, the “Herbicidal activity EC” value in [15] was 5 (herbicidal effect of not less than 90%, or phytotoxicity of 90% or more). Also, the “Herbicidal activity MV” value in [16] is 5 (herbicidal effect of not less than 90%, or phytotoxicity of 90% or more). The “Herbicidal activity OS” value in [17] was 1 (herbicidal effect of not less than 10% and less than 30%, or phytotoxicity of 10% or more and less than 30%).
